Laboratory results: PubChem BioAssay (NCI)
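Protocol summary: plate cells (96-well), add compound at 5 concentrations, incubate 48 h, interpolate endpoints linearly. TGI denotes the concentration required for complete inhibition of growth.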

Tests used:
Experiment in all cases: DTP human tumour cell line panel, 48 h
SNB-75 CNS = tested on: SNB-75 CNS
HOP-62 NSCLC = tested on: HOP-62 NSCLC
UACC-62 melanoma = tested on: UACC-62 melanoma
MDA-MB-231 breast = tested on: MDA-MB-231 breast
RPMI-8226 leukemia = tested on: RPMI-8226 leukemia
SN12C renal = tested on: SN12C renal
MDA-MB-435 = tested on: MDA-MB-435
ACHN renal = tested on: ACHN renal
NCI-H460 lung = tested on: NCI-H460 lung
IGROV1 ovarian = tested on: IGROV1 ovarian
UO-31 renal = tested on: UO-31 renal
SR leukemia = tested on: SR leukemia
COLO 205 colon = tested on: COLO 205 colon
MCF7 breast = tested on: MCF7 breast
SNB-19 CNS = tested on: SNB-19 CNS
T-47D breast = tested on: T-47D breast
HOP-92 NSCLC = tested on: HOP-92 NSCLC
M14 melanoma = tested on: M14 melanoma
DU-145 prostate = tested on: DU-145 prostate
BT-549 breast = tested on: BT-549 breast
PC-3 prostate = tested on: PC-3 prostate
SK-MEL-2 melanoma = tested on: SK-MEL-2 melanoma
RXF 393 renal = tested on: RXF 393 renal
TK-10 renal = tested on: TK-10 renal
MDA-N = tested on: MDA-N
NCI-H23 lung = tested on: NCI-H23 lung
OVCAR-4 ovarian = tested on: OVCAR-4 ovarian
NCI-H226 lung = tested on: NCI-H226 lung
LOX IMVI melanoma = tested on: LOX IMVI melanoma
MOLT-4 leukemia = tested on: MOLT-4 leukemia
OVCAR-5 ovarian = tested on: OVCAR-5 ovarian
SF-295 CNS = tested on: SF-295 CNS
EKVX NSCLC = tested on: EKVX NSCLC
HT29 colon = tested on: HT29 colon
A498 renal = tested on: A498 renal
KM12 colon = tested on: KM12 colon
SK-OV-3 ovarian = tested on: SK-OV-3 ovarian
U251 CNS = tested on: U251 CNS
UACC-257 melanoma = tested on: UACC-257 melanoma
HCT-15 colon = tested on: HCT-15 colon
CAKI-1 renal = tested on: CAKI-1 renal
OVCAR-8 ovarian = tested on: OVCAR-8 ovarian
OVCAR-3 ovarian = tested on: OVCAR-3 ovarian
MALME-3M melanoma = tested on: MALME-3M melanoma
NCI/ADR-RES ovarian = tested on: NCI/ADR-RES ovarian
NCI-H522 lung = tested on: NCI-H522 lung
HCT-116 colon = tested on: HCT-116 colon
SK-MEL-5 melanoma = tested on: SK-MEL-5 melanoma
SK-MEL-28 melanoma = tested on: SK-MEL-28 melanoma
786-0 renal = tested on: 786-0 renal
SF-539 CNS = tested on: SF-539 CNS
SF-268 CNS = tested on: SF-268 CNS
SW-620 colon = tested on: SW-620 colon
HCC-2998 colon = tested on: HCC-2998 colon
A549 NSCLC = tested on: A549 NSCLC

Which TGI (SNB-75 CNS) does the source give for `C=C(C)C(=O)OC1CC2(C)OC(=CC2=O)C(C)CC2OC(=O)C(=C)C12` (stereo not given) here?
Its TGI is 49.2 µM.

What about the TGI (HOP-62 NSCLC) of the same compound?
Its TGI is 38.1 µM.

And the TGI (UACC-62 melanoma)?
Its TGI is 27.7 µM.

What about the TGI (MDA-MB-231 breast) of the same compound?
The TGI was 38.8 µM.

What about the TGI (RPMI-8226 leukemia) of the same compound?
The TGI was over 100 µM.

What about the TGI (SN12C renal) of the same compound?
Its TGI is 36.7 µM.

And the TGI (MDA-MB-435)?
Its TGI is 25.8 µM.

What about the TGI (ACHN renal) of the same compound?
Its TGI is 14.4 µM.

What about the TGI (NCI-H460 lung) of the same compound?
Its TGI is 29.7 µM.

And the TGI (IGROV1 ovarian)?
The TGI was 25.4 µM.

What about the TGI (UO-31 renal) of the same compound?
Its TGI is 16.6 µM.

And the TGI (SR leukemia)?
Its TGI is over 24.7 µM.

And the TGI (COLO 205 colon)?
The TGI was 3.31 µM.

And the TGI (MCF7 breast)?
Its TGI is 26.6 µM.

What about the TGI (SNB-19 CNS) of the same compound?
The TGI was 39.2 µM.

What about the TGI (T-47D breast) of the same compound?
Its TGI is 27.8 µM.

What about the TGI (HOP-92 NSCLC) of the same compound?
Its TGI is 28.7 µM.

What about the TGI (M14 melanoma) of the same compound?
The TGI was 24.2 µM.

What about the TGI (DU-145 prostate) of the same compound?
Its TGI is 18.7 µM.

And the TGI (BT-549 breast)?
Its TGI is 21.4 µM.

And the TGI (PC-3 prostate)?
Its TGI is 31.8 µM.

And the TGI (SK-MEL-2 melanoma)?
The TGI was 34.3 µM.

What about the TGI (RXF 393 renal) of the same compound?
The TGI was 5.62 µM.

And the TGI (TK-10 renal)?
The TGI was 28.3 µM.

And the TGI (MDA-N)?
Its TGI is 7.98 µM.

And the TGI (NCI-H23 lung)?
Its TGI is 24.6 µM.

And the TGI (OVCAR-4 ovarian)?
Its TGI is 20.1 µM.

And the TGI (NCI-H226 lung)?
The TGI was over 62.8 µM.

What about the TGI (LOX IMVI melanoma) of the same compound?
Its TGI is 17.8 µM.

What about the TGI (MOLT-4 leukemia) of the same compound?
The TGI was over 35.1 µM.

What about the TGI (OVCAR-5 ovarian) of the same compound?
Its TGI is 26.9 µM.

What about the TGI (SF-295 CNS) of the same compound?
The TGI was 38.1 µM.

What about the TGI (EKVX NSCLC) of the same compound?
The TGI was 25.1 µM.

What about the TGI (HT29 colon) of the same compound?
Its TGI is 24.2 µM.

What about the TGI (A498 renal) of the same compound?
The TGI was 37.6 µM.

What about the TGI (KM12 colon) of the same compound?
Its TGI is 55.3 µM.

What about the TGI (SK-OV-3 ovarian) of the same compound?
Its TGI is over 100 µM.

And the TGI (U251 CNS)?
The TGI was 74.5 µM.

What about the TGI (UACC-257 melanoma) of the same compound?
The TGI was 35.2 µM.

What about the TGI (HCT-15 colon) of the same compound?
Its TGI is 5.19 µM.

What about the TGI (CAKI-1 renal) of the same compound?
The TGI was 9.02 µM.

What about the TGI (OVCAR-8 ovarian) of the same compound?
Its TGI is 35.6 µM.

And the TGI (OVCAR-3 ovarian)?
Its TGI is 19 µM.

What about the TGI (MALME-3M melanoma) of the same compound?
The TGI was 16.1 µM.

And the TGI (NCI/ADR-RES ovarian)?
The TGI was 69.8 µM.

And the TGI (NCI-H522 lung)?
The TGI was 4.2 µM.

And the TGI (HCT-116 colon)?
Its TGI is 5.15 µM.

And the TGI (SK-MEL-5 melanoma)?
Its TGI is 13.4 µM.

What about the TGI (SK-MEL-28 melanoma) of the same compound?
Its TGI is 30.2 µM.

And the TGI (786-0 renal)?
Its TGI is 17.6 µM.

And the TGI (SF-539 CNS)?
The TGI was 14.2 µM.

What about the TGI (SF-268 CNS) of the same compound?
Its TGI is over 100 µM.

And the TGI (SW-620 colon)?
Its TGI is 18.3 µM.

And the TGI (HCC-2998 colon)?
The TGI was 24.8 µM.

What about the TGI (A549 NSCLC) of the same compound?
Its TGI is 47.7 µM.
